In patent US11020360B2, “Methods, compounds, compositions and vehicles for delivering 3-amino-1-propanesulfonic acid” (Bellus Health, Inc., priority 2006, dated 2021):
Values joined by “and” are separate entries in the source; they are usually repeats but may differ in a detail not shown here. Equal entries are not always repeated. Structures can show the parent of a compound that is named as a salt.

Assays:
[1] = Metabolic profiling of 14C-3APS in rats; format: in vivo, male Sprague-Dawley rats
Procedure: (§1) Three single dose studies were conducted in mice, rats and dogs to determine the metabolic profile of ^14C-3APS in plasma, urine and feces. In the first study, twenty-seven male CD-1 mice received a single dose of 100 mg/kg (20 μCi/animal) of ^14C-3APS by oral gavage. Blood samples (3 animals/time point) were collected for 12 hr following drug administration while urine and feces (3 animals/time point) samples were collected for 96 hr. In the second study, eight male Sprague-Dawley rats received a single dose of 100 mg/kg (50 μCi/animal) of ^14C-3APS by oral gavage while in the third study, three male Beagle dogs received a single dose of 100 mg/kg (30 μCi/kg) of ^14C-3APS by oral gavage. For the rat and dog studies, blood samples were collected for 24 hr following drug administration while urine and feces samples were collected for 72 hr. All samples were analyzed for total radioactivity using appropriate sample preparation procedures and scintillation counting. Plasma and urine samples were also analyzed for 3APS and 3APS metabolites (2-carboxyethanesulfonic acid, 3-hydroxy-1-propanesulfonic acid and 3-acetylamino-1-propanesulfonic acid) concentrations using qualified HPLC and MS/MS methods.

[2] = Single oral and IV administration of 14C-3APS to rats; format: in vivo, male Sprague-Dawley rats; conditions: for AUC0-∞ / AUC(0-inf): 100 mg/kg 14C-3APS, rats, 100 mg/kg; for AUC(0-inf): male, Sprague-Dawley, rat, plasma
Procedure: The purpose of this study was to investigate the absorption, metabolism and excretion profiles of ^14C-3APS following a single intravenous bolus and oral administration to rats. Thirty-six male Sprague-Dawley rats received a single 100 mg/kg (˜50 μCi/animal) dose of ^14C-3APS by an IV bolus injection (water or isotonic saline solution) and an additional 36 male rats received the same dose level by oral gavage (in water). Blood, urine, feces, brain and CSF samples were collected for up to 72 hr following dose administration. Plasma, urine, brain and CSF concentrations of 3APS and 2-carboxyethanesulfonic acid (3APS major metabolite) were measured using LC and MS/MS detection method. Plasma, urine, feces, brain and CSF samples were analyzed for total radioactivity using appropriate sample preparation procedures and scintillation counting.

[3] = Metabolic profiling of 14C-3APS in dogs; format: in vivo, male Beagle dogs
Procedure: as §1

[4] = Absorption, excretion and plasma kinetics of 14C-3APS in humans; format: in vivo, human
Excerpt: Following the identification of 3APS metabolites, plasma and urine samples from this human AME study were reanalyzed for 3APS and 3APS metabolite (2-carboxyethanesulfonic acid, 3-hydroxy-1-propanesulfonic acid and 3-acetylamino-1-propanesulfonic acid) concentrations using qualified HPLC and MS/MS methods to determine the metabolic profile of ^14C-3APS in human.

[5] = Metabolic profiling of 14C-3APS in mice; format: in vivo, male CD-1 mice
Procedure: as §1

[6] = tested on: primary rat neuron culture; assay: In vitro metabolism of 3APS in primary rat neuron culture; format: in vitro ADME; conditions: primary neuron culture media
Procedure: The metabolism of 3APS was also studied in vitro in different types of cellular models. In some cases, the metabolism of 3APS was compared with that of γ-amino butyric acid (GABA).
The conversion of 3APS to 2-carboxyethanesulfonic acid was time-dependent and cell concentration-dependent. Incubation of 3APS (400 μM initial concentration) for six days in the cell culture media (containing 800,000 cells) produced with 48 μM of 2-carboxyethanesulfonic acid. Under the same experimental conditions, 5.4 μM succinic acid was detected starting from GABA (400 μM initial concentration).

[7] = Stability in water, at pH 1.5 and PBS; format: physicochemical; conditions: 37° C., 60 min
Procedure: Stability of exemplary compounds was determined in water, aqueous acidic solution (pH 1.5, HCl) and PBS (phosphate buffered saline) solution using ESI-MS (electrospray ionization mass spectrometry) as the detecting instruments. In general a 2 μg/mL pro-drug solution containing 1 μg/ml IS (internal standard) was prepared and incubated for 60 min. For water stability the incubation was performed at room temperature and for stability in acidic solution and in buffer. The incubation temperature was 37° C. Samples were analyzed for prodrug content at time points 0 and 60 min. using MS. The % changes in peak area ratio after 60 minutes for each test compound tested are calculated using the average values from six replicate runs. The compounds tested included Compounds A1 to A19, Compounds B5 and B6 and Compounds C1 to C26. Except for C26 which was found unstable at pH 1.5 and in PBS, all other compounds were judged to be stable under all conditions tested with less than about 15%-20% concentration change after 60 minutes.

[8] = PK brain and plasma levels of oral Compound A2 and 3-APS in mice; format: in vivo; conditions: oral 0.18 mmol/kg
Procedure: Compounds A2 and 3-aminopropanesulfonic acid were tested for pharmacokinetic parameters in mice. Parmacokinetic parameters (Cmax, Tmax, T½, AUC) are evaluated for 3APS after administration of a molar equivalent of each compound. Blood samples (approximately 1 ml) and brain samples are collected from each of 3 animals at time points 5, 15, 30 minutes, 1, 2, 4, 6, 12, and 24 hours. […] A 2-fold increase in plasma concentration (Cmax) of 3-APS was observed when orally administering Compound A2 compared to 3-APS.

[9] = Mouse whole blood stability; format: in vitro ADME; conditions: 37° C.
Procedure: (§2) Test compounds were incubated for a total of 240 minutes at 37° C. in whole mouse and whole human blood. The compounds were added at time-point 0 and sample aliquots were withdrawn at each time point (usually 0, 60 and 240 minutes). The samples were extracted using protein precipitation. Analysis of extracted samples was achieved using HPLC with MS detection. Several types of HPLC columns and mobile phase were used depending of the polarity of the compound. The compound stability was determined by the % of compound remaining at 240 minutes (peak response of compound at 240 minutes/peak response at 0 minutes×100).

[10] = Bioavailability of exemplary compounds in mice (3APS quantified in plasma); format: in vivo; conditions: compared with 3APS
Procedure: Selected exemplary compounds were tested for bioavailability in mice. Bioavailability estimates are performed for 3APS after administration of molar equivalent the selected compounds. […] The animals are anesthetized with isoflurane before blood collection (approximately 45 sec). Samples are collected at 5, 30, 60, 120, 180, 240 and 360 min post intravenous administration and at 15, 30, 60, 120, 180, 240 and 360 min post oral administration. One animal is used to obtain a baseline sample (pre-dose sample). Blood samples are collected into Sarstedt™ micro tubes (EDTA KE/1.3 ml), kept on ice until centrifugation at 4° C. at a minimum speed of 3000 rpm (1620 G) for 10 min. Plasma samples are transferred into Eppendorf™ tubes, immediately placed on dry ice and stored at −80° C. Plasma samples are stored frozen at […] pending analysis.
Compounds in mouse plasma are extracted using protein precipitation. Quantitation of 3APS in mouse plasma matrix is achieved using LC-MS detection. Sample concentration is calculated using a calibration curve.

[11] = Human whole blood stability; format: in vitro ADME; conditions: 37° C.
Procedure: as §2

[12] = Rat plasma, analyte after single oral 100 mg/kg 14C-3APS
[13] = male, Sprague-Dawley, rat, plasma, po, 100 mg/kg, Rat plasma, analyte after single oral 100 mg/kg 14C-3APS
[14] = IV, individual animals 1001-1004
[15] = PO, individual animals 3001-3004
[16] = Mouse plasma, analyte after single oral 100 mg/kg 14C-3APS
[17] = male, CD-1, mouse, plasma, po, 100 mg/kg, Mouse plasma, analyte after single oral 100 mg/kg 14C-3APS
[18] = Rat plasma, single oral 100 mg/kg 14C-3APS
[19] = Dog plasma, single oral 100 mg/kg 14C-3APS
[20] = Mouse plasma, single oral 100 mg/kg 14C-3APS

SMILES: O=C(O)CCS(=O)(=O)O [2-carboxyethanesulfonic acid]
- AUC0-τ [1, 12]: 12.7 µmol·min/mL
- AUC∞ [1, 12]: 13.6 µmol·min/mL
- T1/2 ([1]; Rat plasma, analyte after single oral 100 mg/kg 14C-3APS, 100 mg/kg): 3.99 h
- % of Total Radioactivity, Plasma ([1]; Rat, AUC0-∞ analyte/AUC total radioactivity, single oral 100 mg/kg 14C-3APS): 30%
- % of Total Radioactivity, Urine ([1]; Rat, amount excreted, single oral 100 mg/kg 14C-3APS): 62%
- Tmax [1, 13]: 4 h
- half-life [1, 13]: ~4 h
- Cmax ([1]; male, Sprague-Dawley, Rat plasma, analyte (3APS or metabolite) after single oral 100 mg/kg 14C-3APS): 23.4 µM
- AUC0-∞ [2, 14]: 144 µM·h and 184 µM·h and 125 µM·h
- % of total radioactivity (AUC0-∞ analyte/AUC total radioactivity) [2, 14]: 6.5% and 9.1% and 9.8% and 9.9%
- AUC0-∞ [2, 15]: 153 µM·h and 177 µM·h and 229 µM·h
- % of total radioactivity (AUC0-∞ analyte/AUC total radioactivity) [2, 15]: 26.5% and 21.4% and 28.2% and 29.3%
- AUC(0-inf) ([2]; iv, Mean): 140 µM·h
- AUC(0-inf) ([2]; iv, individual animals 1001-1004): 105 µM·h
- AUC(0-inf) ([2]; po, Mean): 198 µM·h
- AUC(0-inf) ([2]; po, individual animals 3001-3004): 232 µM·h
- AUC0-τ ([3]; Dog plasma, analyte after single oral 100 mg/kg 14C-3APS): 30.5 µmol·min/mL
- % of Total Radioactivity, Urine ([3]; Dog, amount excreted, single oral 100 mg/kg 14C-3APS, 100 mg/kg): 77%
- Tmax ([3]; male, Beagle, dog, plasma, po, 100 mg/kg, Dog plasma, analyte after single oral 100 mg/kg 14C-3APS): 12 h
- Cmax ([3]; male, Beagle, Dog plasma, analyte (3APS or metabolite) after single oral 100 mg/kg 14C-3APS): 31.2 µM
- time of maximum plasma concentration ([4]; healthy subjects, analyte after oral 14C-3APS): 6.5 h
- % of total radioactivity in plasma based on AUC0-τ ([4]; healthy subjects, oral 14C-3APS): 49%
- % of total amount of radioactivity excreted in urine ([4]; human urine): 79%
- AUC0-τ [5, 16]: 7.26 µmol·min/mL
- AUC∞ [5, 16]: 7.56 µmol·min/mL
- % of Total Radioactivity, Plasma ([5]; Mouse, AUC0-∞ analyte/AUC total radioactivity, single oral 100 mg/kg 14C-3APS): 30%
- % of Total Radioactivity, Urine ([5]; Mouse, amount excreted, single oral 100 mg/kg 14C-3APS, 100 mg/kg): 62%
- Tmax [5, 17]: 2 h
- half-life [5, 17]: ~2 h
- Cmax ([5]; male, CD-1, Mouse plasma, analyte (3APS or metabolite) after single oral 100 mg/kg 14C-3APS): 18 µM

SMILES: C=CC(N)CCC(=O)O (stereo not drawn) [vigabatrin]
- effect on the conversion of 3APS to 2-carboxyethanesulfonic acid [6]: significantly inhibited

SMILES: NCC1(CC(=O)O)CCCCC1 [gabapentin]
- effect on the conversion of 3APS to 2-carboxyethanesulfonic acid [6]: no significant effect

SMILES: O=C(CCNNC(=O)c1ccncc1)NCc1ccccc1 [Nialamide]
- effect on the conversion of 3APS to 2-carboxyethanesulfonic acid [6]: reduced the formation of 2-carboxyethanesulfonic acid (from 3APS) but to a lesser extent

SMILES: Cc1oc(=O)oc1COC(=O)NCCCS(=O)(=O)O [Compound C26, 3-({[(5-methyl-2-oxo-1,3-dioxol-4-yl)methoxy]carbonyl}amino)-1-propanesulfonic Acid Sodium Salt]
- Stability in PBS [7]: unstable
- Stability in aqueous acidic solution (pH 1.5, HCl) [7]: unstable

SMILES: CC(C)[C@H](N)C(=O)NCCCS(=O)(=O)O [Compound A2]
- Brain concentration of 3-APS [8]: observed
- Blood stability (% of compound remaining after 240 min.) Mouse Blood [9]: ++ (++: 30-75%)
- effect on bioavailability of 3APS [10]: increasing the bioavailability of 3APS

SMILES: NCCCC[C@H](N)C(=O)NCCCS(=O)(=O)O [Compound A4]
- Blood stability (% of compound remaining after 240 min.) Mouse Blood [9]: +++ (+++: >75%)
- Blood stability (% of compound remaining after 240 min.) Human Blood [11]: + (+: <30%)
- effect on bioavailability of 3APS [10]: increasing the bioavailability of 3APS

SMILES: N[C@@H](CO)C(=O)NCCCS(=O)(=O)O [Compound A7]
- Blood stability (% of compound remaining after 240 min.) Mouse Blood [9]: +++ (+++: >75%)
- Blood stability (% of compound remaining after 240 min.) Human Blood [11]: +++ (+++: >75%)
- effect on bioavailability of 3APS [10]: increasing the bioavailability of 3APS

SMILES: N[C@@H](COCc1ccccc1)C(=O)NCCCS(=O)(=O)O [Compound A18]
- Blood stability (% of compound remaining after 240 min.) Mouse Blood [9]: + (+: <30%)
- Blood stability (% of compound remaining after 240 min.) Human Blood [11]: + (+: <30%)
- effect on bioavailability of 3APS [10]: increasing the bioavailability of 3APS

SMILES: NCCCS(=O)(=O)O [^14C-3APS]
- Total Radioactivity AUC0-τ [1, 18]: 43.3 μmol eq · min/mL
- Total Radioactivity AUC∞ [1, 18]: 45.2 μmol eq · min/mL
- % of the dose excreted in urine as total radioactivity ([1]; rat, on average in all species): 60%
- AUC0-∞ Total Radioactivity ([2]; IV, Mean): 1591 nmol eq · h/mL
- AUC0-∞ Total Radioactivity [2, 14]: 1625 nmol eq · h/mL and 1588 nmol eq · h/mL and 1883 nmol eq · h/mL and 1266 nmol eq · h/mL
- AUC0-∞ Total Radioactivity ([2]; PO, Mean): 749 nmol eq · h/mL
- AUC0-∞ Total Radioactivity [2, 15]: 874 nmol eq · h/mL and 714 nmol eq · h/mL and 628 nmol eq · h/mL and 781 nmol eq · h/mL
- Total Radioactivity AUC0-τ [3, 19]: 45.4 μmol eq · min/mL
- Total Radioactivity AUC∞ [3, 19]: 108 μmol eq · min/mL
- % of the dose excreted in urine as total radioactivity ([3]; dog, on average in all species): 60%
- Total Radioactivity AUC0-τ [5, 20]: 24.4 μmol eq · min/mL
- Total Radioactivity AUC∞ [5, 20]: 25.0 μmol eq · min/mL
- % of the dose excreted in urine as total radioactivity ([5]; mouse, on average in all species): 60%
